Assay results taken from patent publication US20160214926A1, “DIPHENYLOXYALKYLAMINE DERIVATIVES AND ARYLOXYALKYLAMINE DERIVATIVES, PHARMACEUTICAL COMPOSITION, USE OF SAID PHARMACEUTICAL COMPOSITION FOR TREATING, PREVENTING OR INHIBITING CHRONIC PULMONARY INFLAMMATORY DISEASES AND METHOD FOR TREATING OR PREVENTING SUCH DISEASES” (FUNDACAO OSWALDO CRUZ, priority 2013, published 2016).
Like-named read-outs stand apart in the source and are kept apart here.

Assays:
[1] = tested on: sodium current in GH3 cells; assay: Inhibition of sodium current in GH3 cells, patch clamp; format: cell-based, rat
rat tracheal rings = assay: Inhibition of carbachol-induced contraction of rat tracheal rings (pretreatment); details: for IC50 / Emax: carbachol 10 μM, pretreated 10 minutes; for Emax: mean ± SEM, read-out: EMAX maximum effect of inhibition of carbachol-induced contraction
Excerpt: In this study, Wistar rats of both sexes were used, weighing between 200 and 250 g, coming from the Laboratory Animal Breeding Center of Fundacdo Oswaldo Cruz. As previously described (Coelho et al., 2008), the animals were sacrificed by exposure to air atmosphere enriched with CO2, Then, the anterior cervical region was opened so that the trachea could be located and removed. It was then transferred to a Petri dish containing Krebs solution with the following composition (mM): NaCl (118), KCl (4.8), CaCl2 (2.5), MgSO4 (1.2), KH2PO4 (1.2), NaHCO3 (24), and glucose (11). The total segment was divided into fragments of about 3 to 4 rings, which were kept in another Petri dish containing Krebs solution. Each fragment was mounted vertically on a 10 ml cuvette with Krebs solution maintained at 37° C. and aerated with carbogen mixture (95% O2 and 5% CO2). The lower rod is fixed to the cuvette base and the top portion was attached to the isometric transducer for measuring the voltage variation of the fragment. The transducer was connected to a device which transforms the voltage variation in digital record. The fragments were subjected to a basal voltage of 1 g and were calibrated, so that the subsequent contractions could be expressed as a percentage of this 1 g voltage. The solutions were introduced inside the cuvettes with the aid of an automatic pipette. The end of the tip was always placed at the same height and position, without touching the muscle. The tracheal rings were initially contracted with 2.5 μM of carbachol. When the contractions reached the plateau, each segment was washed until the total relaxation of the smooth muscle. […] All results were expressed as percentage of the contraction produced by 2.5 μM of carbachol (Coelho et al., 2008).

[2] = tested on: rat tracheas pre-contracted with carbachol; assay: Relaxation of rat trachea pre-contracted with carbachol
Description: To assess the potential relaxing effect of the respiratory smooth muscle, rat tracheas were obtained and maintained in an isolated organ bath, as previously described (Coelho et al., 2008). The tracheal segments were then pre-contracted with carbachol at the concentration of 2.5 μM and subjected to increasing concentrations of the tested compounds. All results were expressed as percentage of the contraction produced by carbachol (Coelho et al., 2008).

tracheal rings = assay: Anaphylactic (ovalbumin-induced) contraction of tracheal rings from sensitized rats; design: species or system Wistar rats
Description: In this study, Wistar rats of both sexes were used, weighing between 200 and 250 g, coming from the Laboratory Animal Breeding Center of Fundacdo Oswaldo Cruz. As described previously (da Costa et al., 2007), the animals were sensitized by injection into the dorsal subcutaneous tissue with mixture containing 50 μg of ovalbumin and 5 mg of aluminum hydroxide on days 0 and 7. On the 14th day after the first sensitization, the animals were sacrificed for the removal of the trachea. After a stabilization period of 30 minutes, the tracheal rings were contracted initially with carbachol (2.5 μM) for testing the feasibility and reproducibility of the responses of the preparation.
The tracheal rings were exposed to increasing concentrations of JME-173 (3-30 μM), or carrier (0.9% NaCl) for 30 minutes before the triggering of the contractile response triggered by ovalbumin (100 μg/ml). Salmeterol (30 μM) was used as reference treatment. The responses were expressed as mean±Standard Error of the Mean of at least 5 tracheal segments. All results were expressed as percentage of the contraction produced by 2.5 μM of carbachol.

[3] = tested on: mast cells of the RBL-2H3 line; assay: Antigen-induced degranulation of sensitized mast cells (beta-hexosaminidase release); format: cell-based; details: Rattus norvegicus; for Emax: RBL-2H3, DNP-BSA, read-out: EMAX blocking of anaphylactic mast cell degranulation
Description: For this study, mast cells of the RBL-2H3 line were used, as previously reported (Beaven et al., 1987). […] The cells were then dissociated from the plate using trypsin, centrifuged at 1000 rpm for 5 minutes and distributed in 48-well plates at a density of 125,000 cells per well. The cells were sensitized with monoclonal DNP-specific […] (1 μg/mL) diluted in the same medium used for the cultivation and maintained in the oven for 20 hours. After this period, the cells were washed with Tyrode-gelatin and subjected to treatment with increasing concentrations of […]-209 or mexiletine for 60 minutes. Then, incubation was performed with DNP-BSA (10 ng/ml) for a further period of 60 minutes. After this period, 10 μL of supernatant were collected from each well and added to a 96-well plate. The cells were lysed with 200 μL of 0.1% Triton X-100 and 10 μL of the lysate of each plate were added to the 96-well plate. Then, 40 μL of substrate for the β-hexosaminidase enzyme were added to the samples. After 40 minutes of reaction, reaction stopping solution (0.2 M glycine) was added, generating a colorimetric response, which was measured by spectrophotometer (λ=405 nm).

A/J mice [4] = assay: Ovalbumin asthma model: airway hyperreactivity, leukocyte infiltration, cytokines (nebulization); format: in vivo
Description: Male A/J mice (18-20 g), coming from the Laboratory Animal Breeding Center of Oswaldo Cruz Foundation, were used in the experiments. The animals were previously sensitized with a mixture of ovalbumin (OVA) (50 μg) (Grade V; Sigma, St. Louis, Mo., USA) and aluminum hydroxide (5 mg) administered subcutaneously on day 0 with boost on day 14 (equal suspension administered intraperitoneally). Nasal instillations of OVA (25 μg/25 μl in sterile 0.9% NaCl) were administered on days 14, 21, 28 and 35, with the hyperresponsiveness analysis performed 24 hours after the last challenge. […] That is, the treatments took place after the installation of asthma framework, reflecting a therapeutic action of the respective compounds analyzed.
The effect of the treatments on bronchial hyperreactivity was investigated by measuring the resistance changes and pulmonary elastance, using invasive barometric plethysmography whole-body system (Buxco, USA), as previously described (Olsen et al., 2012).

A/J mice [5] = assay: Ovalbumin asthma model: hyperreactivity, mucus production, peribronchial fibrosis (nebulization); format: in vivo
Excerpt: Male A/J mice (18-20 g), coming from the Laboratory Animal Breeding Center of Oswaldo Cruz Foundation, were used in the experiments. The sensitization procedures, antigen challenge and treatment used in this study followed the experimental protocol shown in FIG. 6. Histological techniques were used for the quantification of mucus and peribronchial fibrosis, following previously reported and validated experimental protocols (Serra et al., 2012).

[6] = trachea pre-contracted with carbachol 2.5 μM, mean±SEM

In the case of `NC1=N[C@H](O)[C@H]2[C@H]3O[C@]4(O)O[C@@H]([C@@H](O)[C@@]2(N1)[C@@H]4O)[C@]3(O)CO` [tetrodotoxin], the IC50 ([1]; read-out: IC50 inhibition of sodium current) is reported as 0.304 µM.

For `Cc1cc(OCC(C)N)cc(C)c1Br.Cl` (centres unmarked) [JME-173], the IC50 (rat tracheal rings; Rattus norvegicus) was 44.4 µM, the Emax (rat tracheal rings; Rattus norvegicus) was 97.9 ± 4.7% and the inhibition at 100 µM (rat tracheal rings; Rattus norvegicus, compound 100 μM, pre-treatment 10 minutes, read-out: inhibition of the muscarinic contraction) was ~98%. For the same molecule, the IC50 (rat tracheal rings) was 44.3 µM, the EC50 ([2]; Rattus norvegicus, trachea pre-contracted with carbachol 2.5 μM, mean±SEM) was 3100 µM and the “times more potent as relaxation inducers than mexiletine” value ([2]; pre-contracted trachea) was 47 times. For the same molecule, the maximum relaxation effect [2, 6] was 118%, the EC50 (tracheal rings; Rattus norvegicus, ovalbumin 100 μg/ml, 30 minutes pretreatment, read-out: EC50 inhibition of anaphylactic contraction response) was 8.3 µM and the “blocking of anaphylactic contraction” value (tracheal rings; compound 30 μM) was “completely inhibited”. For the same molecule, the Emax [3] was 97%, the “IL-5 generation in lung tissue” value (A/J mice [4]; nebulization 2%) was “blocking” and the “IL-13 generation in lung tissue” value (A/J mice [4]; nebulization 2%) was “blocking”. The “eotaxin-2 generation in lung tissue” value (A/J mice [4]; nebulization 2%) was “blocking”, the “increased levels of anti-inflammatory cytokine IL-10” value (A/J mice [4]; nebulization 2%) was “without change” and the “airway hyperreactivity (lung resistance and elastance after methacholine)” value (A/J mice [4]; nebulization 2% for 30 minutes, OVA sensitized and challenged) was “abolished”. For the same molecule, the airway hyperreactivity (A/J mice [5]; nebulization 0.5%, 1% or 2% for 30 minutes) was “able to block”, the “inhibition of mucus production in airways” value (A/J mice [5]; nebulization 0.5%, PAS staining, quantitative analysis) was “about 70%” and the peribronchial fibrotic response (A/J mice [5]; nebulization, Gömöri trichrome, morphometry) was “clearly abolished”.

For `Cc1cccc(C)c1OCC(C)N` (centres unmarked) [Mexiletine, 2-(2-aminopropoxy)-1,3-dimethylbenzene, reference compound], the IC50 ([1]; GH3 cells, patch clamp, read-out: IC50 for blocking the sodium current) was ~278 µM, the IC50 (rat tracheal rings; Rattus norvegicus) was 466 µM and the Emax (rat tracheal rings; Rattus norvegicus) was 87.7 ± 4.9%. For the same molecule, the “blocking of the muscarinic contraction” value (rat tracheal rings; compound 1000 μM) was “about 88%”, the maximum relaxation effect [2, 6] was 40% and the IC50 ([3]; RBL-2H3, 1 h, RBL-2H3, DNP-BSA 10 ng/ml, 60 minutes treatment, read-out: IC50 blocking of anaphylactic mast cell degranulation) was 382 µM. It also gave an Emax [3] of 100%.
